Data taken from the supplement of paper PMC4862054.

system: CAL-85-1; assay: normalised response (% of control), CellTiter-Glo; higher = more viable cells (100 = DMSO, 0 = benzethonium chloride kill control); conditions: incubation time: 72 h
Outline: (§1)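 Breast cancer cell lines, seeded at 20 µl suspension per well, were incubated for 72 h in 384-well plates containing compound at 5 concentrations. These concentrations rose in 10-fold steps over a 10,000-fold range set for each compound. CellTox Green fluorescence (485/520 nm) was read, then CellTiter-Glo luminescence after 10 min at room temperature, and each plate was normalised to 0.1 % DMSO (100) and a positive kill control (0). Values are normalised signals, each at one concentration.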

SMILES | normalised response
CC(C)C(=O)Nc1ccc([N+](=O)[O-])c(C(F)(F)F)c1 [Flutamide] (100 nM) | 95%
COc1cc2c(Oc3ccc(NC(=O)C4(C(=O)Nc5ccc(F)cc5)CC4)cc3F)ccnc2cc1OCCCN1CCOCC1 [Foretinib] (10 nM) | 100%
COc1cc(Nc2ncc(F)c(Nc3ccc4c(n3)N(COP(=O)(O)O)C(=O)C(C)(C)O4)n2)cc(OC)c1OC [Fostamatinib] (25 nM) | 98.5%
CC[C@@H]1C(=O)N(C)c2cnc(Nc3ccc(C(=O)N[C@H]4CC[C@H](N5CCN(CC6CC6)CC5)CC4)cc3OC)nc2N1C(C)C [Volasertib] (10 nM) | 70.4%

system: MCF-10A; assay: as above; conditions: incubation time: 72 h
Outline: as §1

SMILES | normalised response
CC(C)(C)Cn1c(N)nc2ccc(-c3[nH]c(C(C)(C)C)nc3-c3ccc(F)cc3)nc21 (100 nM) | 98.4%
CC[C@H](CC#N)OC(=O)N[C@@H](C)c1cccc(NC(=O)Nc2ccc(-c3cnco3)c(OC)c2)c1 [AVN944] (100 nM) | 91.9%
CC(C)C[C@H](NC(=O)[C@H](CCc1ccccc1)NC(=O)CN1CCOCC1)C(=O)N[C@@H](Cc1ccccc1)C(=O)N[C@@H](CC(C)C)C(=O)[C@@]1(C)CO1 [Carfilzomib] (10 nM) | 119%
CCc1cnn2c(NCc3ccc[n+]([O-])c3)cc(N3CCCC[C@H]3CCO)nc12 [Dinaciclib] (10 nM) | 105%
CC(C)C(=O)Nc1ccc([N+](=O)[O-])c(C(F)(F)F)c1 [Flutamide] (100 nM) | 96.8%
COc1cc2c(Oc3ccc(NC(=O)C4(C(=O)Nc5ccc(F)cc5)CC4)cc3F)ccnc2cc1OCCCN1CCOCC1 [Foretinib] (10 nM) | 99.5%
COc1cc(Nc2ncc(F)c(Nc3ccc4c(n3)N(COP(=O)(O)O)C(=O)C(C)(C)O4)n2)cc(OC)c1OC [Fostamatinib] (25 nM) | 100%
CC[C@@H]1C(=O)N(C)c2cnc(Nc3ccc(C(=O)N[C@H]4CC[C@H](N5CCN(CC6CC6)CC5)CC4)cc3OC)nc2N1C(C)C [Volasertib] (10 nM) | 87.9%

system: CAL-51; assay: as above; conditions: incubation time: 72 h
Outline: as §1

SMILES | normalised response
CC(C)(C)Cn1c(N)nc2ccc(-c3[nH]c(C(C)(C)C)nc3-c3ccc(F)cc3)nc21 (100 nM) | 92.9%
CC[C@H](CC#N)OC(=O)N[C@@H](C)c1cccc(NC(=O)Nc2ccc(-c3cnco3)c(OC)c2)c1 [AVN944] (100 nM) | 83.9%
CC(C)C[C@H](NC(=O)[C@H](CCc1ccccc1)NC(=O)CN1CCOCC1)C(=O)N[C@@H](Cc1ccccc1)C(=O)N[C@@H](CC(C)C)C(=O)[C@@]1(C)CO1 [Carfilzomib] (10 nM) | 60.5%
CCc1cnn2c(NCc3ccc[n+]([O-])c3)cc(N3CCCC[C@H]3CCO)nc12 [Dinaciclib] (10 nM) | 65.7%
CC(C)C(=O)Nc1ccc([N+](=O)[O-])c(C(F)(F)F)c1 [Flutamide] (100 nM) | 113%
COc1cc2c(Oc3ccc(NC(=O)C4(C(=O)Nc5ccc(F)cc5)CC4)cc3F)ccnc2cc1OCCCN1CCOCC1 [Foretinib] (10 nM) | 119%
COc1cc(Nc2ncc(F)c(Nc3ccc4c(n3)N(COP(=O)(O)O)C(=O)C(C)(C)O4)n2)cc(OC)c1OC [Fostamatinib] (25 nM) | 83%
CC[C@@H]1C(=O)N(C)c2cnc(Nc3ccc(C(=O)N[C@H]4CC[C@H](N5CCN(CC6CC6)CC5)CC4)cc3OC)nc2N1C(C)C [Volasertib] (10 nM) | 84.2%

system: SK-BR-3; assay: as above; conditions: incubation time: 72 h
Outline: as §1

SMILES | normalised response
CC(C)(C)Cn1c(N)nc2ccc(-c3[nH]c(C(C)(C)C)nc3-c3ccc(F)cc3)nc21 (100 nM) | 104%
CC[C@H](CC#N)OC(=O)N[C@@H](C)c1cccc(NC(=O)Nc2ccc(-c3cnco3)c(OC)c2)c1 [AVN944] (100 nM) | 96%
CC(C)C[C@H](NC(=O)[C@H](CCc1ccccc1)NC(=O)CN1CCOCC1)C(=O)N[C@@H](Cc1ccccc1)C(=O)N[C@@H](CC(C)C)C(=O)[C@@]1(C)CO1 [Carfilzomib] (10 nM) | 19.1%
CCc1cnn2c(NCc3ccc[n+]([O-])c3)cc(N3CCCC[C@H]3CCO)nc12 [Dinaciclib] (10 nM) | 37.4%
CC(C)C(=O)Nc1ccc([N+](=O)[O-])c(C(F)(F)F)c1 [Flutamide] (100 nM) | 95.9%
COc1cc2c(Oc3ccc(NC(=O)C4(C(=O)Nc5ccc(F)cc5)CC4)cc3F)ccnc2cc1OCCCN1CCOCC1 [Foretinib] (10 nM) | 104%
COc1cc(Nc2ncc(F)c(Nc3ccc4c(n3)N(COP(=O)(O)O)C(=O)C(C)(C)O4)n2)cc(OC)c1OC [Fostamatinib] (25 nM) | 91.2%
CC[C@@H]1C(=O)N(C)c2cnc(Nc3ccc(C(=O)N[C@H]4CC[C@H](N5CCN(CC6CC6)CC5)CC4)cc3OC)nc2N1C(C)C [Volasertib] (10 nM) | 54.8%

system: CAL-120; assay: as above; conditions: incubation time: 72 h
Outline: as §1

SMILES | normalised response
CC(C)(C)Cn1c(N)nc2ccc(-c3[nH]c(C(C)(C)C)nc3-c3ccc(F)cc3)nc21 (100 nM) | 106%
CC[C@H](CC#N)OC(=O)N[C@@H](C)c1cccc(NC(=O)Nc2ccc(-c3cnco3)c(OC)c2)c1 [AVN944] (100 nM) | 93.8%
CC(C)C[C@H](NC(=O)[C@H](CCc1ccccc1)NC(=O)CN1CCOCC1)C(=O)N[C@@H](Cc1ccccc1)C(=O)N[C@@H](CC(C)C)C(=O)[C@@]1(C)CO1 [Carfilzomib] (10 nM) | 91.6%
CCc1cnn2c(NCc3ccc[n+]([O-])c3)cc(N3CCCC[C@H]3CCO)nc12 [Dinaciclib] (10 nM) | 88.1%
CC(C)C(=O)Nc1ccc([N+](=O)[O-])c(C(F)(F)F)c1 [Flutamide] (100 nM) | 98.5%
COc1cc2c(Oc3ccc(NC(=O)C4(C(=O)Nc5ccc(F)cc5)CC4)cc3F)ccnc2cc1OCCCN1CCOCC1 [Foretinib] (10 nM) | 102%
COc1cc(Nc2ncc(F)c(Nc3ccc4c(n3)N(COP(=O)(O)O)C(=O)C(C)(C)O4)n2)cc(OC)c1OC [Fostamatinib] (25 nM) | 104%
CC[C@@H]1C(=O)N(C)c2cnc(Nc3ccc(C(=O)N[C@H]4CC[C@H](N5CCN(CC6CC6)CC5)CC4)cc3OC)nc2N1C(C)C [Volasertib] (10 nM) | 88.5%

system: MDA-MB-453; assay: as above; conditions: incubation time: 72 h
Outline: as §1

SMILES | normalised response
CC(C)(C)Cn1c(N)nc2ccc(-c3[nH]c(C(C)(C)C)nc3-c3ccc(F)cc3)nc21 (100 nM) | 101%
